For 14 molecules, IC50 results are on record in EP4361157A1, “FUSED TETRACYCLIC COMPOUND, PREPARATION METHOD THEREFOR AND APPLICATION THEREOF IN MEDICINE” (Jiangsu Hengrui Pharmaceuticals Co., Ltd., priority 2021, dated 2022).

The test system of one assay is AGS cells. In words: Inhibition of ERK phosphorylation of AGS cells (HTRF method). Format: cell-based. As to conditions: phosphorylated ERK/total ERK ratio, 1 h incubation. The protocol: AGS cells (Nanjing Cobioer, CBP60476) were cultured in RPMI1640 (Hyclone, SH30809.01) complete medium containing 10% fetal bovine serum. On the first day of the experiment, the AGS cells were seeded into a 96-well plate with complete medium at a density of 40,000 cells/well to form 190 µL of cell suspension per well. The plate was incubated overnight in a cell incubator at 37 °C with 5% CO2.
The next day, 10 µL of serially-diluted test compound prepared from the complete medium was added to each well. The final concentrations of the compound were 9 concentration points obtained by 5-fold serial dilution from 10 µM. A blank control containing 0.5% DMSO was set. The well plate was incubated in a cell incubator at 37 °C with 5% CO2 for 1 h. After completion of incubation, the 96-well cell culture plate was taken out, the medium was removed by pipetting, 200 µL PBS (Shanghai BasalMedia Technologies Co., Ltd., B320) was added to each well, and the cells were washed once. PBS was removed by pipetting, 50 µL of lysis buffer (Cisbio, 64KL1FDF) containing a blocking solution (blocking reagent, Cisbio, 64KB1AAC) was added to each well, and the well plate was lysed on a shaker for 40 min at room temperature with shaking. After lysis, the lysate was pipetted and mixed well, 16 µL of lysate was transferred to two HTRF 96-well assay plates (Cisbio, 66PL96100) per well, and then 4 µL of premixed phosphorylated ERK1/2 antibody solution (Cisbio, 64AERPEG) or 4 µL of premixed total ERK1/2 antibody solution (Cisbio, 64NRKPEG) was added to these two plates. The microplate was sealed with a sealing membrane, centrifuged for 1 min in a microplate centrifuge, and incubated overnight at room temperature in the dark. On the third day, the fluorescence values at an excitation wavelength of 337 nm and at emission wavelengths of 665 nm and 620 nm were read using an ENVISION multifunctional microplate reader (PerkinElmer, ENVISION).
Table 1. Inhibitory activity data for ERK phosphorylation of AGS cells

For another assay, the system named is GP2d cells. In words: Inhibition of 3D proliferation of GP2d cells (CellTiter-Glo 3D). Format: cell-based. As to conditions: 120 h incubation. The protocol:
GP2d cells (Nanjing Cobioer, CBP60010) were cultured in a complete medium, namely DMEM/high glucose medium (Hyclone, SH30243.01) containing 10% fetal bovine serum (Corning, 35-076-CV). On the first day of the experiment, GP2d cells were seeded into a 96-well low adsorption plate (Corning, CLS7007-24EA) with complete medium at a density of 1,000 cells/well to form 90 µL of cell suspension per well. The plate was centrifuged at 2,000 rpm for 5 min at room temperature and then incubated overnight in a cell incubator at 37 °C with 5% CO2.
The next day, 10 µL of serially-diluted test compound prepared from the complete medium was added to each well. The final concentrations of the compound of GP2d cells were 9 concentration points obtained by 3-fold serial dilution from 1 µM, and the final concentrations of the compound of AGS cells were 9 concentration points obtained by 3-fold serial dilution from 10 µM. A blank control containing 0.5% DMSO was set. The well plate was incubated in a cell incubator at 37 °C with 5% CO2 for 120 h. On the seventh day, the 96-well cell culture plate was taken out, 50 µL CellTiter-Glo® 3D reagent (Promega, G9682) was added into each well, the plate was shaken at room temperature for 25 min, pipetted and mixed well, 50 µL of the solution was transferred into a white impermeable 96-well plate (PE, 6005290), and the luminescence signal values were read using a multifunctional microplate reader (PerkinElmer, ENVISION).
Table 2. Inhibitory activity data for 3D proliferation of AGS and GP2d cells

In the case of `CCc1c(F)ccc2cc(O)cc(-c3nc4c5c(nc(OCC6(CN7CCC[C@@H]7CO)CC6)nc5c3F)N3C[C@H]5CC[C@H](N5)[C@H]3CO4)c12` [Example 15, 5-Ethyl-6-fluoro-4-((5aS,6S,9R)-1-fluoro-12-((1-(((R)-2-(hydroxymethyl)pyrrolidin-1-yl)methyl)cyclopropyl)methoxy)-5a,6,7,8,9,10-hexahydro-5H-4-oxa-3,10a,11,13,14-pentaaza-6,9-methanonaphtho[1,8-ab]heptalen-2-yl)naphthalen-2-ol], the IC50 in the assay on AGS cells (Homo sapiens, AGS) is 13.4 nM; with GP2d cells, 7.2 nM.
As to `CCc1c(F)ccc2cc(O)cc(-c3nc4c5c(nc(OCC6(CN7C[C@@H]8C[C@@H]8[C@@H]7CO)CC6)nc5c3F)N3C[C@H]5CC[C@H](N5)[C@H]3CO4)c12` [Example 19, 5 -Ethyl-6-fluoro-4-((5aS,6S,9R)-1-fluoro-12-((1-(((1S,2R,5R)-2-(hydroxymethyl)-3-azabicyclo[3.1.0]hex-3-yl)methyl)cyclopropyl)methoxy)-5a,6,7,8,9,10-hexahydro-5H-4-oxa-3,10a,11,13,14-pentaaza-6,9-methanonaphtho[1,8-ab]heptalen-2-yl)naphthalen-2-ol], the IC50 with AGS cells (Homo sapiens, AGS) stood at 31.1 nM; with GP2d cells, 28.9 nM.
For `CCc1c(F)ccc2cc(O)cc(-c3nc4c5c(nc(OCC6(CN7CC=C[C@H]7CO)CC6)nc5c3F)N3C[C@H]5CC[C@H](N5)[C@H]3CO4)c12` [Example 18, 5-Ethyl-6-fluoro-4-((5aS,6S,9R)-1-fluoro-12-((1-(((S)-2-(hydroxymethyl)-2,5-dihydro-1 H-pyrrol-1-yl)methyl)cyclopropyl)methoxy)-5a,6,7,8,9,10-hexahydro-5H-4-oxa-3,10a, 1 1,13,14-pentaaza-6,9-methanonaphtho[1,8-ab]heptalen-2-yl)naphthalen-2-ol], the IC50 is 10.5 nM in the assay on AGS cells (Homo sapiens, AGS) and 39.3 nM in the assay with GP2d cells.
Consider `CCc1cccc2cc(O)cc(-c3cc4nc(OC[C@@]56CCCN5C[C@H](F)C6)nc5c4c(n3)OCC3C4CCC(CN53)N4)c12` (mixture of isomers) [Diastereomeric (1:1) mixture of 2-p1 and 2-p2], for which the IC50 is 6.6 nM with AGS cells (Homo sapiens, AGS) and 19.9 nM in the assay with GP2d cells.
Take `CCc1cccc2cc(O)cc(-c3nc4c5c(nc(OC[C@@]67CCCN6C[C@H](F)C7)nc5c3F)N3CC5CCC(N5)C3CO4)c12` (single isomer, unassigned) [Diastereomeric (1:1) mixture of 4-p1 and 4-p2]: the IC50 in the assay with AGS cells is 1.35 nM.
`CCc1c(F)ccc2cc(O)cc(-c3nc4c5c(nc(OC[C@@]67CCCN6C[C@H](F)C7)nc5c3F)N3C[C@@H]5CC[C@@H](N5)[C@@H]3CO4)c12` [Example 9-p2, 5-Ethyl-6-fluoro-4-((5aR,6R,9S)-1-fluoro-12-(((2R,7aS)-2-fluorotetrahydro-1H-pyrrolizin-7a(5H)-yl)methoxy)-5a,6,7,8,9,10-hexahydro-5H-4-oxa-3,10a,11,13,14-pentaaza-6,9-methanonaphtho[1,8-ab]heptalen-2-yl)naphthalen-2-ol]: the IC50 with AGS cells (Homo sapiens, AGS) is 60.4 nM.
Consider `CCc1c(F)ccc2cc(O)cc(-c3nc4c5c(nc(OCC6(CN7C[C@@H]8C[C@@H]8[C@H]7CO)CC6)nc5c3F)N3C[C@H]5CC[C@H](N5)[C@H]3CO4)c12` [Example 20, 5 -Ethyl-6-fluoro-4-((5aS,6S,9R)-1-fluoro-12-((1-(((1S,2S,5R)-2-(hydroxymethyl)-3-azabicyclo[3.1.0]hex-3-yl)methyl)cyclopropyl)methoxy)-5a,6,7,8,9,10-hexahydro-5H-4-oxa-3,10a,11,13,14-pentaaza-6,9-methanonaphtho[1,8-ab]heptalen-2-yl)naphthalen-2-ol], for which the IC50 in the assay with AGS cells (Homo sapiens, AGS) came to 14 nM; with GP2d cells it was 8.8 nM.
As for `CCc1c(F)ccc2cc(O)cc(-c3nc4c5c(nc(OCC6(CN7CC=C[C@@H]7CO)CC6)nc5c3F)N3C[C@H]5CC[C@H](N5)[C@H]3CO4)c12` [Example 16, 5-Ethyl-6-fluoro-4-((5aS,6S,9R)-1-fluoro-12-((1-(((R)-2-(hydroxymethyl)-2,5-dihydro-1 H-pyrrol-1-yl)methyl)cyclopropyl)methoxy)-5a,6,7,8,9,10-hexahydro-5H-4-oxa-3,10a, 1 1,13,14-pentaaza-6,9-methanonaphtho[1,8-ab]heptalen-2-yl)naphthalen-2-ol], the IC50 with AGS cells (Homo sapiens, AGS) stood at 11.6 nM; in the assay with GP2d cells, 10.1 nM.
With `CCc1cccc2cc(O)cc(-c3nc4c5c(nc(OC[C@@]67CCCN6C[C@H](F)C7)nc5c3F)N3C[C@@H]5CC[C@@H](N5)[C@@H]3CO4)c12` [Example 4-p2, 5-Ethyl-4-((5aR,6R,9S)-1-fluoro-12-(((2R,7aS)-2-fluorotetrahydro-1H-pyrrolizin-7a(5H )-yl)methoxy)-5a,6,7,8,9,10-hexahydro-5H-4-oxa-3,10a,11,13,14-pentaaza-6,9-methanonaphtho[1,8-ab]heptalen-2-yl)naphthalen-2-ol], in the assay with AGS cells (Homo sapiens, AGS), the IC50 amounted to 86.5 nM.
For `CCc1cccc2cc(O)cc(-c3cc4c5c(nc(OC[C@@]67CCCN6C[C@H](F)C7)nc5c3F)N3CC5CCC(N5)C3CO4)c12` (single isomer, unassigned) [Diastereomeric (1:1) mixture of 11-p1 and 11-p2], the IC50 came out at 15.6 nM in the assay with AGS cells and 62.5 nM with GP2d cells.
For the molecule `Oc1cc(-c2cc3nc(OC[C@@]45CCCN4C[C@H](F)C5)nc4c3c(n2)OCC2C3CCC(CN42)N3)c2c(F)cccc2c1` (single isomer, unassigned) [Diastereomeric (1:1) mixture of 1-p1 and 1-p2], the IC50 with AGS cells worked out at 94.1 nM.
For the molecule `CCc1c(F)ccc2cc(O)cc(-c3nc4c5c(nc(OCC6(CN7C[C@H]8C[C@H]8[C@@H]7CO)CC6)nc5c3F)N3C[C@H]5CC[C@H](N5)[C@H]3CO4)c12` [Example 21, 5 -Ethyl-6-fluoro-4-((5aS,6S,9R)-1-fluoro-12-((1-(((1R,2R,5S)-2-(hydroxymethyl)-3-azabicyclo[3.1.0]hex-3-yl)methyl)cyclopropyl)methoxy)-5a,6,7,8,9,10-hexahydro-5H-4-oxa-3,10a,11,13,14-pentaaza-6,9-methanonaphtho[1,8-ab]heptalen-2-yl)naphthalen-2-ol], the IC50 in the assay with AGS cells (Homo sapiens, AGS) turned out to be 8.1 nM; in the assay on GP2d cells it was 14.7 nM.
Regarding `CCc1c(F)ccc2cc(O)cc(-c3nc4c5c(nc(OCC6(CN7CCC[C@H]7COC(=O)N(C)C)CC6)nc5c3F)N3C[C@H]5CC[C@H](N5)[C@H]3CO4)c12` [Example 25, ((S)-1-((1-((((5aS,6S,9R)-2-(8-ethyl-7-fluoro-3-hydroxynaphthalen-1-yl)-1-fluoro-5a,6,7,8,9,10-hexahydro-5H-4-oxa-3,10a,11,13,14-pentaaza-6,9-methanonaphtho[1,8-ab]heptalen-12-yl)oxy)methyl)cyclopropyl)methyl)pyrrolidin-2-yl)methyl dimethylcarbamate], the half-maximal inhibitory concentration (IC50) with AGS cells (Homo sapiens, AGS) stood at 23.5 nM; with GP2d cells it was 48.5 nM.
Take `Oc1cc(Cl)c(C(F)(F)F)c(-c2nc3c4c(nc(OC[C@@]56CCCN5C[C@H](F)C6)nc4c2F)N2C[C@H]4CC[C@H](N4)[C@H]2CO3)c1` [Example 14-p1, 3-Chloro-5-((5aS,6S,9R)-1-fluoro-12-(((2R,7aS)-2-fluorotetrahydro-1H-pyrrolizin-7a(5 H)-yl)methoxy)-5a,6,7,8,9,10-hexahydro-5H-4-oxa-3,10a,11,13,14-pentaaza-6,9-methanonaphtho[1,8-ab]heptalen-2-yl)-4-(trifluoromethyl)phenol]: in the assay with AGS cells (Homo sapiens, AGS), the IC50 stood at 20.2 nM.
